{"source": "paper PMC10692375", "about": "(Acta Pharmaceutica Sinica. B, 2023)", "test_system": "22Rv1 xenografts", "test": "22Rv1 xenograft model", "format": "in vivo, mice", "settings": "DD1-Br 0.1 mg/kg i.p., ENZ 10 mg/kg p.o., alone or combined, 5 times a week", "data": [{"smiles": "CNC(=O)c1ccc(N2C(=S)N(c3ccc(C#N)c(C(F)(F)F)c3)C(=O)C2(C)C)cc1F", "note": "[ENZ, enzalutamide]", "values": [{"measurement": "tumor growth", "value": "did not show significant effect"}]}]}
